The values that follow come from US20220031680A1, “Donecopride As Neuroprotective Agent In the Treatment of Neurodegenerative Diseases” (priority 2018, published 2022).

The subject of experiment [1] is TDP-43. Put plainly: Cytoplasmic TDP-43 in spinal motor neurons after glutamate injury. The format is cell-based, rat. Particulars: glutamate 5 μM 20 min; highest dose. The protocol: (§1) Rat spinal cord motor neurons (MNs) were cultured as described by Martinou et al. (1992) Neuron. 8:737-744 and Wang et al. (2013) Hum. Mol. Genet. 22:4706-4719. Briefly, pregnant female rats of 14 days gestation (Rats Wistar; Janvier Labs France) were killed using a deep anesthesia with CO2 chamber and a cervical dislocation. Then, fetuses were removed from the uterus and immediately placed in ice-cold L15 Leibovitz medium with a 2% penicillin (10,000 U/ml) and streptomycin (10 mg/ml) solution (PS) and 1% bovine serum albumin (BSA).
Spinal cords were treated for 20 min at 37° C. with a trypsin-EDTA solution at a final concentration of 0.05% trypsin and 0.02% EDTA. […] Viable cells were counted in a Neubauer cytometer, using the trypan blue exclusion test. […]
(§2) Test compounds were tested in 96-well plate (n=6 culture wells per condition). The following conditions were assessed: […]
(§3) The following endpoints were automatically assessed: • Analysis of neuron survival (MAP-2 staining, number of neurons), • Analysis of neurite network (MAP-2 staining, total neurite length in μm), • Analysis of neurite network/neurons (neuronal network/number of MAP2 neurons), • Analysis of cytoplasmic TDP-43 in MAP-2 positive neurons (overlapping between MAP-2 and cytoplasmic TDP-43 in μm^2).

Experiment [2] concerns rat primary GABAergic neurons under a growth factor deprivation. Put plainly: Survival of GABAergic neurons after growth factor deprivation. It counts as cell-based. As to conditions: BDNF and GDNF deprivation 96 h. The protocol: The aim of this study was to investigate the neuroprotective effect of MR33583 (at 4 concentrations) in MSN of striatum survival after growth factor deprivation (BDNF and GDNF deprivation), an in vitro model of Huntington's disease.
Rat MSN of striatum were cultured as described by Ivkovic et al. (1999) J. Neurosci. 19:5409-5419 and Schinelli et al. (1988) J. Neurochem. 50:1900-1907. Briefly pregnant female rats of 15 days gestation were killed using a deep anesthesia with CO2 chamber and a cervical dislocation. Fetuses were collected and immediately placed in ice-cold L15 Leibovitz medium with a 2% penicillin (10,000 U/ml) and streptomycin (10 mg/ml) solution (PS) and 1% bovine serum albumin (BSA). Only a restricted ventral portion of the mesencephalic flexure was used for cell preparation as this is the region of the developing brain rich in MSN cells. These areas were treated for 20 min at 37° C. with a trypsin-EDTA solution at a final concentration of 0.05% trypsin and 0.02% EDTA. […] Viable cells were counted in a Neubauer cytometer using the trypan blue exclusion test. […]
as §2
The following read-out was investigated: Analysis of MSNs survival (GAD67 staining, number of GABAergic neurons).

The test system of experiment [3] is spinal motor neurons injured with glutamate. The experiment can be described thus: Survival and neurite network of primary spinal motor neurons after glutamate injury. It counts as cell-based, rat. Particulars: glutamate 5 μM 20 min. As for the experimental part: as §1
Spinal cords were treated for 20 min at 37° C. with a trypsin-EDTA solution at a final concentration of 0.05% trypsin and 0.02% EDTA. The dissociation was stopped by addition of Dulbecco's modified Eagle's medium (DMEM) with 4.5 g/I glucose, containing DNAse I grade II (final concentration 0.5 mg/ml) and 10% fetal calf serum (FCS). Cells were mechanically dissociated by three forced passages through the tip of a 10-ml pipette. Cells were then centrifuged at 515×g for 10 min at 4° C. The supernatant was discarded, and the pellet was resuspended in a defined culture medium consisting of Neurobasal medium with a 2% solution of B27 supplement, 2 mmol/I L-glutamine, 2% PS solution, and 10 ng/ml brain-derived neurotrophic factor (BDNF). Viable cells were counted in a Neubauer cytometer, using the trypan blue exclusion test. Cells were seeded at a density of 20,000 per well in 96-well plates precoated with poly-L-lysine and were cultured at 37° C. in an air (95%)-CO2 (5%) incubator.
The medium was changed every 2 days. […]
as §2, §3

Take `COc1cc(N)c(F)cc1C(=O)CCC1CCN(CC2CCCC2)CC1` [MR33583]: the “dose reducing the signal of TDP43 in the cytoplasm of spinal motor neurons” value in experiment [1] turned out to be 100 nM. For the same compound, in experiment [2], the “concentration with significant neuroprotective effect (survival of GABAergic neurons)” value is listed as 50 nM.

Regarding `COc1cc(N)c(F)cc1C(=O)CCC1CCN(CC2CCCCCC2)CC1` [MR36014], the “concentrations significantly improving spinal motor neurons survival” value in experiment [3] (24 h) stood at 1 nM. Moreover, in experiment [3] (spinal motor neurons), the “concentrations significantly protecting the neurite network” value is 1 nM and the “ratio neurite network length/number of neurons” value was “not modified”.
